The record followed here is patent US7473683B2, “Nonpolar thymidine analogs” (The Board of Trustees of the Leland Stanford Junior …, priority 2005, dated 2009).

The structures appear in SMILES notation.

Assay [1] deals with DNA Pol I (Klenow fragment, exo-). In words: steady-state kinetics of single nucleotide insertions, thymidine analogues in the template. The settings on record: for efficiency as analog of thymidine in a template strand (summary): Example 4, dATP insertion; for Km / Vmax / efficiency / Rel. efficiency: Example 4: incorporating dATP opposite template thymidine analog; for Rel. efficiency: T template = 1. Further details: efficiency: unit not given here. The class given is biochemical, E. coli. How it is done: (§1) In vitro steady-state kinetics. As polymerase substrates we used 28 mer/23 mer template-primer duplexes having the sequence (5′-ACT GXT CTCCCTATAGTGAGTCGTATTA [SEQ ID NO:1])·(5′-TAATACGACTCACTATAGGGAGA [SEQ ID NO:2]). Kinetics were measured at 37° C. in a buffer containing 10 mM Mg^2+. The primer was 5′ end-labeled and was extended by the polymerase in the presence of a single dNTP species over varied concentration and time. Products of single nucleotide insertions were resolved from unreacted primer by 20% denaturing gel electrophoresis, and were quantitated by autoradiography. Details of the kinetics experiments are given in the Supporting Data.
(§2) We chose DNA polymerase I (Klenow fragment, exonuclease-deficient) as an ideal candidate for initial study, as it is enzymatically well-characterized among replicative enzymes, and yet is relatively small and acts as a single subunit. We carried out kinetics studies of single nucleotide insertions in the steady state, using a gel electrophoresis-based assay.
(§3) Data for single nucleotide insertion kinetics in the steady-state. The enzyme was the Klenow fragment of DNA pol I from E. coli (exonuclease deficient). Methods are as described above.

The test system is the same in assay [2]. In words: steady-state kinetics of single nucleotide insertions, incoming nucleotide analogues (dNTP/dXTP). In kind it is biochemical, E. coli. The settings on record: for rel. efficiency: relative to insertion of dTTP opposite A. On the procedure: as §1, §2, §3
Where [3] appears, read: dNTP inserted opposite template base A, 37° C.
[4] abbreviates: dNTP inserted opposite template base A, 37° C., 10 mM MgCl2, pH 7.5, normalized to lowest enzyme concentration.
Where [5] appears, read: dNTP inserted opposite template base A.
Where [6] appears, read: dNTP inserted opposite template base C, 37° C.
Setting [7] is: dNTP inserted opposite template base C, 37° C., 10 mM MgCl2, pH 7.5, normalized to lowest enzyme concentration.
[8] abbreviates: dNTP inserted opposite template base C.
Where [9] appears, read: dNTP inserted opposite template base G, 37° C.
Where [10] appears, read: dNTP inserted opposite template base G, 37° C., 10 mM MgCl2, pH 7.5, normalized to lowest enzyme concentration.
The mark [11] stands for this setting: dNTP inserted opposite template base G.
The mark [12] stands for this setting: dNTP inserted opposite template base T, 37° C.
Setting [13] is: dNTP inserted opposite template base T, 37° C., 10 mM MgCl2, pH 7.5, normalized to lowest enzyme concentration.
[14] abbreviates: dNTP inserted opposite template base T.
The mark [15] stands for this setting: Example 4: incorporating dXTP opposite adenine in a DNA template.

For `Cc1cc([C@H]2C[C@@H](O)[C@@H](CO)O2)c(Cl)cc1Br` [2C4B], in assay [1], the “efficiency as analog of thymidine in a template strand (summary)” value (shortened to “efficiency as analog of thymidine”) is recorded as “probably as good”, the Km came out at 4.18 ± 0.47 µM, the Vmax is 30.4709 ± 0.8544 and the efficiency entry is given as “(7.38 ± 1.07) × 10^6”. Besides, the Rel. efficiency in assay [1] was 4.0 × 10^−1.
Take `Cc1cc([C@H]2C[C@@H](O)[C@@H](CO)O2)c(Cl)cc1Cl` [2C4C, 2,4-dichlorotoluene]: the “efficiency as analog of thymidine” value in assay [1] is given as “most efficient analog overall”.
Take `Cc1cc([C@H]2C[C@@H](O)[C@@H](CO)O2)c(F)cc1Cl` [2F4C]: in assay [1], the “efficiency as analog of thymidine” value is “probably as good”, the Km was found to be 7.51 ± 2.79 µM, the Vmax is reported as 49.7002 ± 1.5432 and the efficiency entry was “(7.13 ± 2.13) × 10^6”. For the same molecule, the Rel. efficiency in assay [1] is 3.8 × 10^−1.
As to `Cc1cc([C@H]2C[C@@H](O)[C@@H](CO)O2)ccc1Cl` [2H4C], in assay [1], the Km was found to be 31.5 ± 8.91 µM, the Vmax was 2.8214 ± 0.5396, the efficiency entry was “(9.81 ± 1.58) × 10^4” and the Rel. efficiency was 5.3 × 10^−3.
On the same counts, the results for `Cc1cc([C@H]2C[C@@H](O)[C@@H](CO)O2)cc(Cl)c1Cl` [3,4-di-C] are 55 ± 24 µM, 0.4291 ± 0.1095, “(8.30 ± 1.55) × 10^3” and 4.5 × 10^−4.
For `Cc1cc(Cl)cc([C@H]2C[C@@H](O)[C@@H](CO)O2)c1` [3C], in assay [1], the Km stood at 51.9 ± 1.9 µM, the Vmax is on record as 0.4378 ± 0.1116, the efficiency result is listed as “(8.62 ± 0.85) × 10^3” and the Rel. efficiency was 4.6 × 10^−4.
With `Cc1cc(C2CC(O)C(COP(=O)(O)OP(=O)(O)OP(=O)(O)O)O2)c(Br)cc1Br` (centres unmarked) [dBTP], the Km was determined as 23 ± 6 µM in assay [2] (setting [3]), 74 ± 22 µM in assay [2] (setting [6]), 50 ± 10 µM in assay [2] (setting [9]) and 38 ± 21 µM in assay [2] (setting [12]). In addition, the Vmax was found to be 13 ± 2 % · min^−1 in assay [2] (setting [4]), 0.016 ± 0.001 % · min^−1 in assay [2] (setting [7]), 0.0094 ± 0.0004 % · min^−1 in assay [2] (setting [10]) and 0.8 ± 0.16 % · min^−1 in assay [2] (setting [13]). Further, the rel. efficiency in assay [2] (setting [5]) is given as 3.6 × 10^−2; in assay [2] (setting [8]) it was 1.4 × 10^−5; in assay [2] (setting [11]) it was 1.2 × 10^−5; in assay [2] (setting [14]), 1.3 × 10^−3.
On to `Cc1cc(C2CC(O)C(COP(=O)(O)OP(=O)(O)OP(=O)(O)O)O2)c(F)cc1F` (centres unmarked) [dFTP, reference compound], for which the Km was 29 ± 10 µM in assay [2] (setting [3]), 200 ± 110 µM in assay [2] (setting [6]), 300 ± 120 µM in assay [2] (setting [9]) and 37 ± 15 µM in assay [2] (setting [12]). The Vmax in assay [2] (setting [4]) was 2.9 ± 0.1 % · min^−1; in assay [2] (setting [7]), 0.012 ± 0.004 % · min^−1; in assay [2] (setting [10]), 0.0067 ± 0.0017 % · min^−1; in assay [2] (setting [13]), 0.0066 ± 0.0010 % · min^−1. In addition, the rel. efficiency was 6.3 × 10^−3 in assay [2] (setting [5]), 3.8 × 10^−6 in assay [2] (setting [8]), 1.4 × 10^−6 in assay [2] (setting [11]) and 1.1 × 10^−5 in assay [2] (setting [14]).
For the molecule `Cc1cccc(C2CC(O)C(COP(=O)(O)OP(=O)(O)OP(=O)(O)O)O2)c1` (centres unmarked) [dHTP], the Km worked out at 110 ± 20 µM in assay [2] (setting [3]), 310 ± 170 µM in assay [2] (setting [6]), 200 ± 90 µM in assay [2] (setting [9]) and 59 ± 27 µM in assay [2] (setting [12]). Further, the Vmax in assay [2] (setting [4]) was found to be 0.11 ± 0.20 % · min^−1; in assay [2] (setting [7]), 0.0067 ± 0.0023 % · min^−1; in assay [2] (setting [10]), 0.0065 ± 0.0016 % · min^−1; in assay [2] (setting [13]), 0.0046 ± 0.0011 % · min^−1. Moreover, the rel. efficiency in assay [2] (setting [5]) is recorded as 6.3 × 10^−5; in assay [2] (setting [8]), 1.4 × 10^−6; in assay [2] (setting [11]), 2.0 × 10^−6; in assay [2] (setting [14]), 4.9 × 10^−6.
In the case of `Cc1cccc(C2CC(O)C(CO)O2)c1` (centres unmarked) [dH], the “fidelity (efficiency of correct T analog:A pair divided by efficiency of the most efficient mismatch)” value in assay [1] (varied-size template nucleoside mimics, insertion of dATP vs mismatch) came to 45.
For the molecule `Cc1cc(C2CC(O)C(COP(=O)(O)OP(=O)(O)OP(=O)(O)O)O2)c(I)cc1I` (centres unmarked) [dITP], the Km in assay [2] (setting [3]) came to 18 ± 2 µM; in assay [2] (setting [6]), 23 ± 1 µM; in assay [2] (setting [9]), 43 ± 7 µM; in assay [2] (setting [12]), 37 ± 7 µM. For the same molecule, the Vmax is 1.8 ± 0.1 % · min^−1 in assay [2] (setting [4]), 0.0023 ± 0.0004 % · min^−1 in assay [2] (setting [7]), 0.0020 ± 0.0001 % · min^−1 in assay [2] (setting [10]) and 0.23 ± 0.02 % · min^−1 in assay [2] (setting [13]). Besides, the rel. efficiency in assay [2] (setting [5]) is recorded as 6.3 × 10^−3; in assay [2] (setting [8]), 6.3 × 10^−6; in assay [2] (setting [11]), 2.9 × 10^−6; in assay [2] (setting [14]), 3.9 × 10^−4.
Take `Cc1cc(C2CC(O)C(COP(=O)(O)OP(=O)(O)OP(=O)(O)O)O2)c(Cl)cc1Cl` (centres unmarked) [dLTP]: the “efficiency lower than for insertion of natural dTTP” value in assay [2] (dNTP analog inserted opposite adenine) is recorded as 7 fold. Further, the Km worked out at 18 ± 5 µM in assay [2] (setting [3]), 160 ± 66 µM in assay [2] (setting [6]), 110 ± 30 µM in assay [2] (setting [9]) and 62 ± 21 µM in assay [2] (setting [12]). The Vmax in assay [2] (setting [4]) turned out to be 39 ± 4 % · min^−1; in assay [2] (setting [7]) it was 0.050 ± 0.010 % · min^−1; in assay [2] (setting [10]), 0.035 ± 0.004 % · min^−1; in assay [2] (setting [13]), 0.54 ± 0.10 % · min^−1. Moreover, the rel. efficiency is given as 1.4 × 10^−1 in assay [2] (setting [5]), 1.9 × 10^−5 in assay [2] (setting [8]), 2.0 × 10^−5 in assay [2] (setting [11]) and 5.4 × 10^−4 in assay [2] (setting [14]).
For the molecule `Cc1cn([C@H]2C[C@H](O)[C@@H](COP(=O)(O)OP(=O)(O)OP(=O)(O)O)O2)c(=O)[nH]c1=O` [dTTP, reference compound], the Km in assay [2] (setting [15]) was found to be 1.56 ± 1 µM; in assay [2] (setting [3]) it was 1.9 ± 0.4 µM; in assay [2] (setting [6]) it was 510 ± 400 µM; in assay [2] (setting [9]) it was 140 ± 86 µM; in assay [2] (setting [12]), 63 ± 18 µM. The Vmax in assay [2] (setting [15]) was determined as 30.70 ± 12.0; in assay [2] (setting [4]) it was 30 ± 3 % · min^−1; in assay [2] (setting [7]) it was 0.067 ± 0.040 % · min^−1; in assay [2] (setting [10]) it was 0.42 ± 0.18 % · min^−1; in assay [2] (setting [13]) it was 0.010 ± 0.002 % · min^−1. Moreover, the efficiency result in assay [2] (setting [15]) is recorded as “(2.29 ± 0.9) × 10^7”. This molecule also came in with a Rel. efficiency in assay [2] (Example 4: incorporating dXTP opposite adenine in a DNA template, dTTP = 1) of 1. Also, the rel. efficiency in assay [2] (setting [5]) is reported as 1; in assay [2] (setting [8]), 6.3 × 10^−6; in assay [2] (setting [11]), 2.5 × 10^−4; in assay [2] (setting [14]), 1.0 × 10^−5.
